Reference: US11129827B2 (priority 2017, dated 2021)
Where two headings read alike, the source gives them in different places.

Tests used:
FAAH [1] = target: FAAH (Mus musculus (Mouse), UniProt O08914); test: in vivo; details: po, read-out: FAAH (mouse) % inh. 5 mg/kg
MAGL [2] = target: MAGL (Mus musculus (Mouse), UniProt O35678); test: in vivo; details: po, read-out: MAGL (mouse) % inh. 5 mg/kg
MAGL [3] = target: MAGL (Homo sapiens (Human), UniProt Q99685); test: biochemical; details: for inhibition at 1 µM: read-out: MAGL (human) % inh. 1 μM
FAAH [4] = target: FAAH (Homo sapiens (Human), UniProt O00519); test: biochemical; details: for inhibition at 1 µM: read-out: FAAH (human) % inh. 1 μM

`CC(=O)Nc1cncc(OC(=O)N2CCN(Cc3ccc(Cl)c(OC(C)C)c3)CC2)c1` [Example 52, 5-Acetamidopyridin-3-yl 4-(4-chloro-3-isopropoxybenzyl)pipera-zine-1-carboxylate] was tested, and the inhibition at 5 mg/kg (FAAH [1]) was over 75%, the inhibition at 5 mg/kg (MAGL [2]) was 0 to 25% and the IC50 (MAGL [3]) was under 100 nM. The inhibition at 1 µM (MAGL [3]) was over 75%, the inhibition at 1 µM (FAAH [4]) was over 75% and the IC50 (FAAH [4]; read-out: FAAH (human) IC50) was 100 to 1000 nM.

`O=C(Oc1cncc(C(F)(F)F)c1)N1CCC2(CC1)CN(Cc1cccc(Oc3nc4ccccc4s3)c1)C2` [Example 7, 5-(Trifluoromethyl)pyridin-3-yl 2-(3-(benzo[d]thiazol-2-yloxy)benzyl)-2,7-diazaspiro[3.5]nonane-7-carboxylate] showed an inhibition at 5 mg/kg (FAAH [1]) of over 75%, an inhibition at 5 mg/kg (MAGL [2]) of 25 to 50% and an inhibition at 1 µM (MAGL [3]) of over 75%. It also gave an IC50 (MAGL [3]; read-out: MAGL (human) IC50) of under 100 nM, an inhibition at 1 µM (FAAH [4]) of over 75% and an IC50 (FAAH [4]; read-out: FAAH (human) IC50) of under 100 nM.

`CC(C)Oc1ccc(CN2CCN(C(=O)Oc3cncc(C(N)=O)c3)CC2)c(OC(F)(F)F)c1` [Example 18, 5-Carbamoylpyridin-3-yl 4-(4-isopropoxy-2-(trifluoromethoxy)benzyl)piperazine-1-carboxylate] was tested, and the inhibition at 5 mg/kg (FAAH [1]) was over 75%, the inhibition at 5 mg/kg (MAGL [2]) was over 75% and the inhibition at 1 µM (MAGL [3]) was over 75%. For the same molecule, the IC50 (MAGL [3]; read-out: MAGL (human) IC50) was 100 to 1000 nM, the inhibition at 1 µM (FAAH [4]) was over 75% and the IC50 (FAAH [4]; read-out: FAAH (human) IC50) was 100 to 1000 nM.

`C[C@@H]1CN(Cc2cc(Cl)cc(Oc3ncccn3)c2)CCN1C(=O)Oc1cncc(C#N)c1` [Example 86, 5-Cyanopyridin-3-yl (R)-4-(3-chloro-5-(pyrimidin-2-yloxy)benzyl)-2-methylpiperazine-1-carboxylate] gave an inhibition at 5 mg/kg (FAAH [1]) of over 75%, an inhibition at 5 mg/kg (MAGL [2]) of over 75% and an IC50 (MAGL [3]) of 100 to 1000 nM. For the same molecule, the inhibition at 1 µM (MAGL [3]) was over 75%, the IC50 (FAAH [4]) was under 100 nM and the inhibition at 1 µM (FAAH [4]) was over 75%.

Molecule `C[C@@H]1CN(Cc2cc(Cl)cc(C(F)(F)F)c2)CCN1C(=O)Oc1cncc(C(N)=O)c1` [Example 65, (R)-5-Carbamoylpyridin-3-yl 4-(3-chloro-5-(trifluoromethyl)benzyl)-2-methylpiperazine-1-carboxylate] has an inhibition at 5 mg/kg (FAAH [1]) of over 75%, an inhibition at 5 mg/kg (MAGL [2]) of over 75% and an inhibition at 1 µM (MAGL [3]) of over 75%. For the same molecule, the IC50 (MAGL [3]; read-out: MAGL (human) IC50) was 100 to 1000 nM, the inhibition at 1 µM (FAAH [4]) was over 75% and the IC50 (FAAH [4]; read-out: FAAH (human) IC50) was 100 to 1000 nM.

`C[C@@H]1CN(Cc2cc(F)cc(C(F)(F)F)c2)CCN1C(=O)Oc1cncc(C(N)=O)c1` [Example 20, 5-Carbamoylpyridin-3-yl (R)-4-(3-fluoro-5-(trifluoromethyl)benzyl)-2-methylpiperazine-1-carboxylate] showed an inhibition at 5 mg/kg (FAAH [1]) of over 75%, an inhibition at 5 mg/kg (MAGL [2]) of over 75% and an inhibition at 1 µM (MAGL [3]) of over 75%. It also gave an IC50 (MAGL [3]; read-out: MAGL (human) IC50) of under 100 nM, an inhibition at 1 µM (FAAH [4]) of over 75% and an IC50 (FAAH [4]; read-out: FAAH (human) IC50) of under 100 nM.

Work on `O=C(Oc1cncc(C(F)(F)F)c1)N1CCC2(CC1)CN(Cc1cccc(Oc3cc(Cl)cc(Cl)c3)c1)C2` [Example 35, 5-(Trifluoromethyl)pyridin-3-yl 2-(3-(3,5-dichlorophenoxy)benzyl)-2,7-diazaspiro[3.5]nonane-7-carboxylate] yielded an inhibition at 1 µM (MAGL [3]) of over 75% and an inhibition at 1 µM (FAAH [4]) of over 75%.

With `O=C(Oc1cncc(C(F)(F)F)c1)N1CCC2(CC1)CN(Cc1cccc(Oc3cccc(C(F)(F)F)n3)c1)C2` [Example 12, 5-(Trifluoromethyl)pyridin-3-yl 2-(3-((6-(trifluoromethyl)pyridin-2-yl)oxy)benzyl)-2,7-diazaspiro[3.5]nonane-7-carboxylate] the inhibition at 1 µM (MAGL [3]) was over 75% and the inhibition at 1 µM (FAAH [4]) was 50 to 75%.

For `O=C(Oc1cncc(C(F)(F)F)c1)N1CCC2(CC1)CN(Cc1cccc(Oc3cccc(Cl)c3)c1)C2` [Example 10, 5-(Trifluoromethyl)pyridin-3-yl 2-(3-(3-chlorophenoxy)benzyl)-2,7-diazaspiro[3.5]nonane-7-carboxylate], the IC50 (MAGL [3]; read-out: MAGL (human) IC50) was under 100 nM and the IC50 (FAAH [4]; read-out: FAAH (human) IC50) was under 100 nM.

Molecule `O=C(Oc1cncc(C(F)(F)F)c1)N1CCC2(CC1)CN(Cc1ccc(Oc3ccc(Cl)cc3)cc1)C2` [Example 30, 5-(Trifluoromethyl)pyridin-3-yl 2-(4-(4-chlorophenoxy)benzyl)-2,7-diazaspiro[3.5]nonane-7-carboxylate] has an IC50 (MAGL [3]; read-out: MAGL (human) IC50) of 100 to 1000 nM and an IC50 (FAAH [4]) of 1000 to 10000 nM.

`NC(=O)c1cncc(OC(=O)N2CCC3(CCN(Cc4cc(Cl)cc(C(F)(F)F)c4)C3)CC2)c1` [Example 3, 5-Carbamoylpyridin-3-yl 2-(3-chloro-5-(trifluoromethyl)benzyl)-2,8-diazaspiro[4.5]decane-8-carboxylate] was tested, and the inhibition at 1 µM (MAGL [3]) was over 75%, the IC50 (MAGL [3]; read-out: MAGL (human) IC50) was under 100 nM and the inhibition at 1 µM (FAAH [4]) was over 75%. For the same molecule, the IC50 (FAAH [4]; read-out: FAAH (human) IC50) was under 100 nM.

`O=C(Oc1cncc(C(F)(F)F)c1)N1CCC2(CC1)CN(Cc1cccc(Oc3ccccc3Cl)c1Cl)C2` [Example 13, 5-(Trifluoromethyl)pyridin-3-yl 2-(2-chloro-3-(2-chlorophenoxy)benzyl)-2,7-diazaspiro[3.5]nonane-7-carboxylate] showed an inhibition at 1 µM (MAGL [3]) of over 75% and an inhibition at 1 µM (FAAH [4]) of 50 to 75%.

`O=C(Oc1cncc(C(F)(F)F)c1)N1CCC2(CC1)CN(Cc1ccc(Oc3cccc(Cl)c3)cc1)C2` [Example 2, 5-(Trifluoromethyl)pyridin-3-yl 2-(4-(3-chlorophenoxy)benzyl)-2,7-diazaspiro[3.5]nonane-7-carboxylate] showed an IC50 (MAGL [3]; read-out: MAGL (human) IC50) of 100 to 1000 nM and an IC50 (FAAH [4]) of 1000 to 10000 nM.

`O=C(Oc1cncc(C(F)(F)F)c1)N1CCC2(CC1)CC(Oc1cc(Cl)ccc1Cl)C2` [Example 27, 5-(Trifluoromethyl)pyridin-3-yl 2-(2,5-dichlorophenoxy)-7-azaspiro[3.5]nonane-7-carboxylate] showed an inhibition at 1 µM (MAGL [3]) of over 75% and an inhibition at 1 µM (FAAH [4]) of over 75%.

`C[C@@H]1CN(Cc2cccc(Oc3ncccn3)c2)CCN1C(=O)Oc1cncc(C#N)c1` [Example 84, 5-Cyanopyridin-3-yl (R)-2-methyl-4-(3-(pyrimidin-2-yloxy)benzyl)piperazine-1-carboxylate] gave an IC50 (MAGL [3]) of under 100 nM, an inhibition at 1 µM (MAGL [3]) of over 75% and an inhibition at 1 µM (FAAH [4]) of over 75%. It also gave an IC50 (FAAH [4]; read-out: FAAH (human) IC50) of 100 to 1000 nM.

Molecule `O=C(Oc1cncc(C(F)(F)F)c1)N1CCC2(CC1)CC(Oc1cc(Cl)cc(Cl)c1)C2` [Example 25, 5-(Trifluoromethyl)pyridin-3-yl 2-(3,5-dichlorophenoxy)-7-azaspiro[3.5]nonane-7-carboxylate] has an IC50 (MAGL [3]) of under 100 nM, an inhibition at 1 µM (MAGL [3]) of over 75% and an inhibition at 1 µM (FAAH [4]) of over 75%. It also gave an IC50 (FAAH [4]; read-out: FAAH (human) IC50) of 100 to 1000 nM.

With `O=C(Oc1cncc(C(F)(F)F)c1)N1CCC2(CC1)CC(Oc1cccc(C(F)(F)F)c1)C2` [Example 1, 5-(Trifluoromethyl)pyridin-3-yl 2-(3-(trifluoromethyl)phenoxy)-7-azaspiro[3.5]nonane-7-carboxylate] the inhibition at 1 µM (MAGL [3]) was over 75%, the IC50 (MAGL [3]; read-out: MAGL (human) IC50) was under 100 nM and the inhibition at 1 µM (FAAH [4]) was over 75%. The IC50 (FAAH [4]; read-out: FAAH (human) IC50) was under 100 nM.

In the case of `O=C(Oc1cncc(C(F)(F)F)c1)N1CCC2(CC1)CC(Oc1ccc(-c3ccccc3)cc1)C2` [Example 28, 5-(Trifluoromethyl)pyridin-3-yl 2-([1,1′-biphenyl]-4-yloxy)-7-azaspiro[3.5]nonane-7-carboxylate], the inhibition at 1 µM (MAGL [3]) is reported as over 75%, the IC50 (MAGL [3]; read-out: MAGL (human) IC50) is reported as under 100 nM and the inhibition at 1 µM (FAAH [4]) is reported as over 75%. It also gave an IC50 (FAAH [4]; read-out: FAAH (human) IC50) of under 100 nM.

For `O=C(Oc1cncc(C(F)(F)F)c1)N1CCN(Cc2cc(Cl)ccc2C(F)(F)F)CC1` [Example 44, 5-(Trifluoromethyl)pyridin-3-yl 4-(5-chloro-2-(trifluoromethyl)benzyl)piperazine-1-carboxylate], the inhibition at 1 µM (MAGL [3]) was over 75%, the IC50 (MAGL [3]; read-out: MAGL (human) IC50) was 100 to 1000 nM and the inhibition at 1 µM (FAAH [4]) was over 75%. The IC50 (FAAH [4]; read-out: FAAH (human) IC50) was 100 to 1000 nM.

Work on `O=C(Oc1cncc(C(F)(F)F)c1)N1CCC2(CC1)CN(Cc1cccc(Oc3ccccc3)c1Cl)C2` [Example 41, 5-(Trifluoromethyl)pyridin-3-yl 2-(2-chloro-3-phenoxybenzyl)-2,7-diazaspiro[3.5]nonane-7-carboxylate] yielded an inhibition at 1 µM (MAGL [3]) of over 75% and an inhibition at 1 µM (FAAH [4]) of over 75%.

For `O=C(Oc1cncc(C(F)(F)F)c1)N1CCC2(CC1)CN(Cc1ccc(Cl)c(Oc3ccccc3)c1Cl)C2` [Example 14, 5-(Trifluoromethyl)pyridin-3-yl 2-(2,4-dichloro-3-phenoxybenzyl)-2,7-diazaspiro[3.5]nonane-7-carboxylate], the inhibition at 1 µM (MAGL [3]) was over 75% and the inhibition at 1 µM (FAAH [4]) was 50 to 75%.

With `Cc1c(CN2CCN(C(=O)Oc3cncc(C(N)=O)c3)[C@@H](C)C2)cccc1C(F)(F)F` [Example 59, (S)-5-Carbamoylpyridin-3-yl 2-methyl-4-(2-methyl-3-(trifluoromethyl)benzyl)piperazine-1-carboxylate] the inhibition at 1 µM (MAGL [3]) was over 75% and the inhibition at 1 µM (FAAH [4]) was 50 to 75%.

`O=C(Oc1cncc(C(F)(F)F)c1)N1CCC2(CC1)CN(Cc1cccc(Oc3ccc(Cl)cc3)c1)C2` [Example 31, 5-(Trifluoromethyl)pyridin-3-yl 2-(3-(4-chlorophenoxy)benzyl)-2,7-diazaspiro[3.5]nonane-7-carboxylate] showed an IC50 (MAGL [3]; read-out: MAGL (human) IC50) of 100 to 1000 nM and an IC50 (FAAH [4]) of under 100 nM.

`CC(C)Oc1cccc(CN2CC3(CCN(C(=O)Oc4cncc(C(F)(F)F)c4)CC3)C2)c1` [Example 22, 5-(Trifluoromethyl)pyridin-3-yl 2-(3-isopropoxybenzyl)-2,7-diazaspiro[3.5]nonane-7-carboxylate] gave an inhibition at 1 µM (MAGL [3]) of 25 to 50% and an inhibition at 1 µM (FAAH [4]) of 50 to 75%.

`CC(C)Oc1cc(Cl)cc(CN2CC3(CCN(C(=O)Oc4cncc(C(F)(F)F)c4)CC3)C2)c1` [Example 24, 5-(Trifluoromethyl)pyridin-3-yl 2-(3-chloro-5-isopropoxybenzyl)-2,7-diazaspiro[3.5]nonane-7-carboxylate] showed an inhibition at 1 µM (MAGL [3]) of over 75% and an inhibition at 1 µM (FAAH [4]) of over 75%.

Molecule `O=C(Oc1cncc(C(F)(F)F)c1)N1CCC2(CC1)CN(Cc1cc(Cl)cc(Oc3nc4ccccc4s3)c1)C2` [Example 23, 5-(Trifluoromethyl)pyridin-3-yl 2-(3-(benzo[d]thiazol-2-yloxy)-5-chlorobenzyl)-2,7-diazaspiro[3.5]nonane-7-carboxylate] has an inhibition at 1 µM (MAGL [3]) of over 75%, an IC50 (MAGL [3]; read-out: MAGL (human) IC50) of under 100 nM and an inhibition at 1 µM (FAAH [4]) of over 75%. It also gave an IC50 (FAAH [4]; read-out: FAAH (human) IC50) of under 100 nM.
